Results reported in US10208152B2, “Poly(ethylene glycol)-b-poly(halomethylstyrene), derivative thereof, and method for producing same” (priority 2014, dated 2019).
Where two headings read alike, the source gives them in different places.

System: acetaminophen-induced hepatotoxicity
Conditions: for Prothrombin time (indicator of hepatic function): FIG. 17
Method: Group 1: Untreated control (4 mice in this group only)
Group 2: 3 mg/kg of acetaminophen administered orally on the 7th day from the start of the test
Group 3: 1 mL of the blank micelles (6.25 mg/mL, 160 mg/kg) synthesized in Example 21 forcibly administered once per day via a feeding tube, 3 m g/kg of acetaminophen administered orally on the 7th day from the start of the test.
Group 5: 170 mg/kg of 4-amino-TEMPO forcibly administered once per day via a feeding tube, 3 mg/kg of acetaminophen administered orally on the 7th day from the start of the test.
Group 6: 600 mg/kg of acetylcysteine forcibly administered once per day via a feeding tube, 3 mg/kg of acetaminophen administered orally on the 7th day from the start of the test.

[1] = 6 mice before test, substance once per day by feeding tube (newRNP^N Example 16, m=13, 160 mg/kg; 4-amino-TEMPO 170 mg/kg; acetylcysteine 600 mg/kg), 3 mg/kg acetaminophen orally on 7th day
[2] = oral once per day, 3 mg/kg acetaminophen on 7th day, newRNP^N m=13

Structure (SMILES) | Numbers of mice alive, After test [1] | Prothrombin time (indicator of hepatic function) [2] | Numbers of mice alive, After test (IGS, mouse, in vivo, po, 3 mg/kg, 1 day) | Share of mice that died within 1 day (acetaminophen alone, 3 mg/kg orally (group 2)) | Superoxide dismutase (SOD) production (oral once per day, 3 mg/kg acetaminophen on 7th day, newRNP^N m=13, FIG. 18) | Toxicity by albumin quantity and AST, ALT and ALP enzyme levels (oral once per day, 3 mg/kg acetaminophen on 7th day, newRNP^N m=13, FIGS. 19 to 22)
CC(=O)N[C@@H](CS)C(=O)O [acetylcysteine] | 4 | extended | – | – | – | –
CC(=O)Nc1ccc(O)cc1 [acetaminophen] | – | – | 2 | two thirds | significant decrease | –
CC1(C)CC(N)CC(C)(C)N1[O] [4-amino-TEMPO] | 2 | extended | – | – | – | extremely high toxicity
